Reference: patent US5607931A, “1,2-disubstituted ethly amides as inhibitors of ACAT” (Schering Corporation, priority 1995, dated 1997)

What was measured:
[1] = biological target: T1, ACAT (Rattus norvegicus, UniProt Q7TQM4); assay: ACAT Assay (in vitro), transfer of tritiated oleic acid from acyl-CoA to cholesterol, rat liver microsomes; format: biochemical; conditions: for inhibition at 10 µM: read-out: % ACAT Inhib. @10 μM; for IC50: 0.1 to 25 μM
T1 construct: Rat liver microsomes are used as the source of ACAT; from tissue; host or cells: rat liver microsomes
T1 sequence (Q7TQM4 1-524): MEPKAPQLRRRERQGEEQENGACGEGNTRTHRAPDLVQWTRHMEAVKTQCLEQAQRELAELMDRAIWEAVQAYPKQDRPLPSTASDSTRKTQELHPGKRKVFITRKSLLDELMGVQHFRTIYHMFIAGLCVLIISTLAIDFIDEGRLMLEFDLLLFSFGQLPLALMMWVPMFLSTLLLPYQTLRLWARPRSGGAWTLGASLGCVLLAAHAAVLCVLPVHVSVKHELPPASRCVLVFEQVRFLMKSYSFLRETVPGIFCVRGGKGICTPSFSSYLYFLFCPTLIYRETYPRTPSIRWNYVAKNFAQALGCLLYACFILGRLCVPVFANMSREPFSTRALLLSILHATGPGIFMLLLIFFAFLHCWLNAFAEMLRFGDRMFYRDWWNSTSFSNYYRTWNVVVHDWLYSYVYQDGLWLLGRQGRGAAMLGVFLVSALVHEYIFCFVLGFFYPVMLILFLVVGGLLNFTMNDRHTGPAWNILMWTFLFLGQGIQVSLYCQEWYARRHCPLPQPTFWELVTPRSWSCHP
Method: This assay measures the activity of ACAT by measuring the ACAT-mediated transfer of tritiated oleic acid from acyl-CoA to cholesterol to give labelled cholesterol oleate. Rat liver microsomes are used as the source of ACAT. Assays are performed in round bottom microtiterplates using a total incubation volume of 50 μL. Each incubation well receives 10 μL assay buffer (0.5M KHPO4, 10 μM dithiothreitol, pH 7.4), 7.5 μL of 40 mg/mL BSA (Bovine Serum Albumin) and 12.5 μg of microsomal protein. The test compound (in sufficient amount to bring the final concentration to from 0.1 to 25 μM), reference compound, or vehicle control is added and the final volume brought to 47 μL. The microtiterplate is then floated on the surface of a 37° C. water bath for fifteen minutes. Incubations are started by the addition of 3 μL ^3 H-acyl CoA (1 μCi/well, final concentration of 10 μM acyl CoA). The plate is then returned to the water bath for 15 minutes. The incubations are then terminated by application of 15 μL from each incubation to individual lanes on a thin layer plate (Silica Gel GF 20×20 cm). Standards are applied to several lanes so that the cholesterol ester band can be identified. After drying, the plates are eluted with 90:10:1 petroleum ether:diethyl ether:acetic acid. The standards are visualized via iodine vapor, and the regions corresponding to cholesterol ester are scraped into 7 mL scintillation vials. 4 mL of scintillant are added to each vial, and the radioactivity quantified. Background count is determined by the boiled controls. Full activity is determined by activity in the presence of vehicle. The percent inhibition is calculated by subtracting the background from both control and test samples, and the test value is calculated as a percentage of the control. For IC50 determinations, the inhibition is plotted against drug does on a log scale and the concentration at which 50% inhibition is obtained is determined.

[2] = test system: liver cholesterol esters; assay: In Vivo Assay of Hypolipidemic Agents Using the Hyperlipidemic Hamster; conditions: Mesocricetus auratus, 168 h; 50 mpk, oral gavage in corn oil once daily, seven days; 0.5% cholesterol diet; percent reduction versus control; read-out: In Vivo 50 mpk % Redn. L/CE
Method: In Vivo Assay of Hypolipidemic Agents Using the Hyperlipidemic Hamster
Hamsters are separated into groups of six and given a control cholesterol diet (Purina Chow #5001 containing 0.5% cholesterol) for seven days. Diet consumption is monitored to determine dietary cholesterol exposure in the face of test compounds. The animals are dosed with the test compound once daily beginning with the initiation of diet. Dosing is by oral gavage of 0.2 mL of corn oil alone (control group) or solution (or suspension) of test compound in corn oil. All animals moribund or in poor physical condition are euthanized. After seven days, the animals are anesthetized by IM injection of ketamine and sacrificed by decapitation. Blood is collected into vacutainer tubes containing EDTA for plasma lipid analysis and the liver excised for tissue lipid analysis. Data is reported as percent reduction of lipid versus control.

| Compound | inhibition at 10 µM [1] | IC50 [1] | change in vivo at 50 mg/kg [2] |
| --- | --- | --- | --- |
| CCCCCCCC/C=C\CCCCCCCC(=O)NC(CC1CCCCC1)c1ccccc1 (centres unmarked) | 92% | 180 nM | – |
| CCCCCCCC/C=C\CCCCCCCC(=O)NC(Cc1ccccc1)C1CCCCC1 (centres unmarked) | 90% | 170 nM | 0% |
| CCCCCCCC/C=C\CCCCCCCC(=O)NC(CN1CCOCC1)c1ccccc1 (centres unmarked) | 99% | 300 nM | -21% |
| CCCCCCCC/C=C\CCCCCCCC(=O)NC(CN1CCCCC1)c1ccccc1 (centres unmarked) | 94% | 1200 nM | -12% |
| CCCCCCCC/C=C\CCCCCCCC(=O)NC(CN1CCN(C)CC1)c1ccccc1 (centres unmarked) | 98% | 300 nM | -55% |
| CCCCCCCC/C=C\CCCCCCCC(=O)NC(CN1CCC2(CC1)OCCO2)c1ccccc1 (centres unmarked) | 93% | 10 nM | -35% |
| CCCCCCCC/C=C\CCCCCCCC(=O)NC(CN1CCC(=O)CC1)c1ccccc1 (centres unmarked) | 100% | 180 nM | – |
| CCCCCCCC/C=C\CCCCCCCC(=O)NC(CN1CCC(=NO)CC1)c1ccccc1 (centres unmarked) | 100% | 30 nM | -21% |
| CCCCCC/C=C\CCCCCCCC(=O)NC(CN1CCN(C)CC1)c1ccccc1 (centres unmarked) | 97% | 160 nM | -37% |
| CCCCCCCC/C=C\CCCCCCCC(=O)NC(CN1CCC(O)CC1)c1ccccc1 (centres unmarked) | 98% | 340 nM | -25% |
| CCCCCCCC/C=C\CCCCCCCC(=O)NC(CN1CCN(C(=O)OC(C)(C)C)CC1)c1ccccc1 (centres unmarked) | 100% | 60 nM | -22% |
| CCCCCCCC/C=C\CCCCCCCC(=O)NC(CN1CCC(OC)(OC)CC1)c1ccccc1 (centres unmarked) | 93% | 500 nM | -18% |
| CCCCCCCC/C=C\CCCCCCCC(=O)NC(CN1CCC2(CCCC2)CC1)c1ccccc1 (centres unmarked) | 59% | – | 0% |
| CCCCCCCC/C=C\CCCCCCCC(=O)NC(CN1CCC(OC)CC1)c1ccccc1 (centres unmarked) | 93% | 150 nM | -24% |
| CCCCCCCC/C=C\CCCCCCCC(=O)NC(CN1CCNCC1)c1ccccc1 (centres unmarked) | 64% | – | -54% |
| CCCCCCCC/C=C\CCCCCCCC(=O)NC(CN1CCC(NC(=O)C(F)(F)F)CC1)c1ccccc1 (centres unmarked) | 90% | 800 nM | 0% |
| CCCCCCCC/C=C\CCCCCCCC(=O)NC(CN1CCC(N)CC1)c1ccccc1 (centres unmarked) | -90% | – | -59% |
| O=C(NC(CN1CCCCC1)c1ccccc1)C(c1ccccc1)c1ccccc1 (centres unmarked) | 64% | – | 0% |
| O=C(NC(CN1CCOCC1)c1ccccc1)C(c1ccccc1)c1ccccc1 (centres unmarked) | 94% | 3000 nM | -15% |

| Compound | inhibition at 10 µM [1] | IC50 [1] | change in vivo at 50 mg/kg [2] |
| --- | --- | --- | --- |
| CN1CCN(CC(NC(=O)C(c2ccccc2)c2ccccc2)c2ccccc2)CC1 (centres unmarked) | 71% | 4500 nM | -39% |
| O=C(NC(CN1CCC2(CC1)OCCO2)c1ccccc1)C(c1ccccc1)c1ccccc1 (centres unmarked) | 94% | 300 nM | -26% |
| O=C1CCN(CC(NC(=O)C(c2ccccc2)c2ccccc2)c2ccccc2)CC1 (centres unmarked) | 90% | 500 nM | 0% |
| O=C(NC(CN1CCC(O)CC1)c1ccccc1)C(c1ccccc1)c1ccccc1 (centres unmarked) | 83% | 3000 nM | -25% |
| O=C(NC(CN1CCC(=NO)CC1)c1ccccc1)C(c1ccccc1)c1ccccc1 (centres unmarked) | 94% | 400 nM | 0% |
| CC(=O)OC1CCN(CC(NC(=O)C(c2ccccc2)c2ccccc2)c2ccccc2)CC1 (centres unmarked) | 59% | – | -25% |
| CC(=O)CC(=O)OC1CCN(CC(NC(=O)C(c2ccccc2)c2ccccc2)c2ccccc2)CC1 (centres unmarked) | 53% | – | – |
| COC1CCN(CC(NC(=O)C(c2ccccc2)c2ccccc2)c2ccccc2)CC1 (centres unmarked) | 88% | 1000 nM | -30% |
| CCCCCCCCCCCCCCCCCC(=O)NC(CN1CCN(C)CC1)c1ccccc1 (centres unmarked) | 90% | 500 nM | -25% |
| CCCCCCCCCCCCCCCC(=O)NC(CN1CCN(C)CC1)c1ccccc1 (centres unmarked) | 87% | 1200 nM | -60% |
| CCCCCCCCCCCCCC(=O)NC(CN1CCN(C)CC1)c1ccccc1 (centres unmarked) | 81% | 7000 nM | 0% |
| CCCCCCCCCCCC(=O)NC(CN1CCN(C)CC1)c1ccccc1 (centres unmarked) | 58% | – | 0% |
| CCCCCCCCCCC(C)(C)C(=O)NC(CN1CCN(C)CC1)c1ccccc1 (centres unmarked) | 94% | 390 nM | 0% |
| CCCCCCCCCCCCCCCC(=O)NC(CN1CCC2(CC1)OCCO2)c1ccccc1 (centres unmarked) | 99% | 160 nM | -19% |
| CCCCCCCCCCCCC(C)(C)C(=O)NC(CN1CCN(C)CC1)c1ccccc1 (centres unmarked) | 95% | 290 nM | -44% |
| CCCCCCCCCCCCCCC(C)(C)C(=O)NC(CN1CCN(C)CC1)c1ccccc1 (centres unmarked) | 97% | 1100 nM | -40% |
| O=C(CCCCCCCCCCOc1ccccc1)NC(CN1CCCCC1)c1ccccc1 (centres unmarked) | 84% | 5000 nM | 0% |
| CN1CCN(CC(NC(=O)CCCCCCCCCCOc2ccccc2)c2ccccc2)CC1 (centres unmarked) | 80% | 4000 nM | 0% |
| CCCCCCCCCCCCCCCC(=O)NC(C(=O)N1CCN(C)CC1)c1ccccc1 (centres unmarked) | 95% | 1800 nM | -17% |
